The values below come from patent US12252487B2, “Dominant salt forms of pyrimidine derivatives, and crystal forms thereof” (GUANGDONG RAYNOVENT BIOTECH CO., LTD., priority 2019, dated 2025).

Assay type in all cases: physicochemical
Data set [1] is described as follows: Solubility of Compound 1 in 19 types of solvents at room temperature. The settings on record: for solubility: thermodynamic from solid. The text has this:
Compound 1 was detected at room temperature for its solubility in 19 types of solvents. Specially, Compound 1 obtained in Example 1 was taken as sample for detecting its solubility in methanol, ethanol, water, acetonitrile, dioxane and other solvents.

The nature of data set [2]: Stability study of crystal forms, XRPD characterization on day 14. Here is the method:
An amount of sample to be tested was weighed and placed in a dish under conditions including high temperature (60° C.), high humidity (25° C., 92.5% RH), light radiation (25° C., 4500 Lux) and acceleration conditions (40° C., 75% RH), respectively, and sampled for XRPD characterization on day 14. Form I, Form II, Form III were taken for stability study under conditions including high temperature (60° C.), high humidity (25° C., 92.5% RH), light radiation (25° C., 4500 Lux), and acceleration conditions (40° C., 75% RH), and the results are shown in Table 2: […]

A short description of data set [3]: XRPD of crystal form after DVS test. From the text: The crystal form IV is obtained by heating the crystal form III to lose some crystalline water.
Data set [4] in a line: Crystal form transition observed during experiment / post-treatment. Conditions: e.g. drying under vacuum at ambient temperature. The text has this: The crystal form VII and the crystal form VIII can be obtained by similar method but by different post-treatment means.

SMILES strings stand for the structures. Values after ≈ are worked out from the molar mass of the structure shown.

Turning to `O=C(O)[C@H]1C2CCC(CC2)[C@@H]1Nc1nc(-c2n[nH]c3ncc(F)cc23)nc(C2CC2)c1F` [Compound 1], the “Solubility as a whole compared with WX-216” value in data set [1] (19 solvents, room temperature) is listed as “better than that of WX-216”. For the same compound, the solubility in data set [1] (organic solvent or mixture, solvent Acetone, 3000 μL, not dissolved completely at 50° C.) was less than 3300 µg/mL; in data set [1] (organic solvent or mixture, solvent Acetonitrile, 3000 μL, not dissolved completely at 50° C.) it was less than 3300 µg/mL; in data set [1] (organic solvent or mixture, solvent Dichloromethane, 3000 μL, not dissolved completely at 50° C.) it was less than 3300 µg/mL; in data set [1] (organic solvent or mixture, solvent Dimethylformamide, 200 μL), more than 50000 µg/mL; in data set [1] (organic solvent or mixture, solvent Dimethylsulfoxide, 200 μL) it was more than 50000 µg/mL; in data set [1] (organic solvent or mixture, solvent Dioxane, 3000 μL, not dissolved completely at 50° C.), less than 3300 µg/mL. Moreover, the solubility is less than 3300 µg/mL in data set [1] (organic solvent or mixture, solvent Ethanol, 3000 μL, not dissolved completely at 50° C.); less than 3300 µg/mL in data set [1] (organic solvent or mixture, solvent Ethyl acetate, 3000 μL, not dissolved completely at 50° C.); less than 3300 µg/mL in data set [1] (organic solvent or mixture, solvent Ethyl formate, 3000 μL, not dissolved completely at 50° C.); less than 3300 µg/mL in data set [1] (organic solvent or mixture, solvent Ethylene glycol dimethyl ether, 3000 μL, not dissolved completely at 50° C.); more than 50000 µg/mL in data set [1] (organic solvent or mixture, solvent Ethylene glycol monomethyl ether, 200 μL); less than 3300 µg/mL in data set [1] (organic solvent or mixture, solvent Iso-propanol, 3000 μL, not dissolved completely at 50° C.). The solubility in data set [1] (organic solvent or mixture, solvent Methanol, 500 μL) is 20000 to 50000 µg/mL (≈ 45.4 to 114 mM); in data set [1] (organic solvent or mixture, solvent Methyl isobutyl ketone, 3000 μL, not dissolved completely at 50° C.), less than 3300 µg/mL; in data set [1] (organic solvent or mixture, solvent Methyl tert-butyl ether, 3000 μL, not dissolved completely at 50° C.), less than 3300 µg/mL; in data set [1] (organic solvent or mixture, solvent N-hexane, 3000 μL, not dissolved completely at 50° C.), less than 3300 µg/mL; in data set [1] (organic solvent or mixture, solvent N-propanol, 3000 μL, not dissolved completely at 50° C.), less than 3300 µg/mL; in data set [1] (organic solvent or mixture, solvent Tetrahydrofuran, 3000 μL, not dissolved completely at 50° C.), less than 3300 µg/mL. Also, the solubility in data set [1] (solvent Water, 200 μL) was more than 50000 µg/mL.

As for `O=C(O)[C@H]1C2CCC(CC2)[C@@H]1Nc1nc(-c2n[nH]c3ncc(F)cc23)nc(C2CC2)c1F` [Crystal Form II], the “Results on Day 14 (XRPD)” value is “No changes” in data set [2] (High humidity (25° C., 92.5% RH)) and “No changes” in data set [2] (High temperature (60° C.)).

`O=C(O)[C@H]1C2CCC(CC2)[C@@H]1Nc1nc(-c2n[nH]c3ncc(F)cc23)nc(C2CC2)c1F` [Crystal Form I]: the “Results on Day 14 (XRPD)” value was “No changes” in data set [2] (Acceleration conditions (40° C., 75% RH)) and “No changes” in data set [2] (Light radiation (25° C., 4500 Lux)).

For `O=C(O)[C@H]1C2CCC(CC2)[C@@H]1Nc1nc(-c2n[nH]c3ncc(F)cc23)nc(C2CC2)c1F` [crystal form IV], the “Crystal form change after DVS test (XRPD)” value in data set [3] was “does not change”.

For `O=C(O)[C@H]1C2CCC(CC2)[C@@H]1Nc1nc(-c2n[nH]c3ncc(F)cc23)nc(C2CC2)c1F` [crystal form IX], in data set [4], the “Stability of the crystal form as concluded from crystal form transitions” value (“Stability of the crystal form” below) is “intermediate metastable crystal form”.

As to `O=C(O)[C@H]1C2CCC(CC2)[C@@H]1Nc1nc(-c2n[nH]c3ncc(F)cc23)nc(C2CC2)c1F` [crystal form VIII], the “Stability of the crystal form” value in data set [4] is given as “high stability”.

With `O=C(O)[C@H]1C2CCC(CC2)[C@@H]1Nc1nc(-c2n[nH]c3ncc(F)cc23)nc(C2CC2)c1F` [crystal form VII], in data set [4], the “Stability of the crystal form” value is “high stability”.

`O=C(O)[C@H]1C2CCC(CC2)[C@@H]1Nc1nc(-c2n[nH]c3ncc(F)cc23)nc(C2CC2)c1F` [crystal form VI]: the “Stability of the crystal form” value in data set [4] is “unstable crystal form”.

With `O=C(O)[C@H]1C2CCC(CC2)[C@@H]1Nc1nc(-c2n[nH]c3ncc(F)cc23)nc(C2CC2)c1F` [crystal form V], in data set [4], the “Stability of the crystal form” value is “high stability”.

The solubility is the dissolved amount per volume that the medium holds.
